# Experimental data published in patent US6153745A, “Relating to mutagenesis of nucleic acids” (Amersham Pharmacia Biotech UK Limited, priority 1995, dated 2000).
# Entries after “also recorded” stand apart in the source; their conditions may differ. Where two headings read alike, the source gives them in different places.
# Assays:
# Taq Polymerase [1] = biological target: T1, Taq Polymerase (Thermus aquaticus, UniProt P19821); experiment: Steady state kinetics of insertion opposite template A or G, primed synthetic oligonucleotide templates; format: biochemical; details: for Relative Efficiency / Vmax /Km / Vmax^(rel): 55° C.
# Description: FIGS. 5A-D show (Top): Plots of initial velocities against [dNTP] for the incorporation by Taq polymerase of dPTP opposite A (A), TTP opposite A (B), dPTP opposite G (C), and dCTP opposite G (D).
# In order to compare the relative efficiencies of insertion of dPTP opposite template adenine and guanine residues respectively, we adopted the procedure of Boosalis et al. (Boosalis et al., 1987 J. Biol. Chem. 262, 14689-14696) for the determination of steady state kinetics using one of two primed synthetic oligonucleotide templates (FIG. 5). The ^32 P-labelled primer in each case was extended by the incorporation of dGTP at two positions, followed by dPTP (template 1 and 2), TTP (template 1) or dCTP (template 2). Separation of the products by PAGE followed by quantitation of the radioactivity using a PhosphorImager allowed the determination of the initial velocities (Boosalis et al., 1987). Due to the very high extension rate of Taq polymerase, the kinetic parameters were determined at 55° C. The velocities for the insertion of the particular triphosphate opposite template (Vmax) and Km values (μM) for particular insertions were determined from non-linear regression fitting to the Michaelis-Menten equation.
# [2] = tested on: thermostable Tth DNA polymerase; details: Pavlov et al., 1994; cited from earlier work
# Taq Polymerase [3] = biological target: T1, Taq Polymerase; experiment: Substrate for Taq polymerase in PCR, replacing normal dNTPs; format: biochemical
# Procedure: All dNTPs were at 500 μM, except in sample 4 and 7 where dPTP was at 1 mM.
# B) The PCR reaction mix included: dATP, dCTP and TTP at 500 μm. Samples 1 to 4 contained dGTP at 50 μM, 25 μM, […] and 6.25 μM respectively, and 8-oxodGTP at 500 μM. Samples 5 to 8 contained the same decreasing amounts of dGTP but no 8-oxodGTP;
# Lanes 5 to 8 show the PCR products obtained using the same conditions but in the absence of 8-oxodGTP.
# target DNA sequence MH22 = experiment: PCR mutagenesis of target DNA, cloning and sequencing; format: biochemical; details: for Number of point mutations, coding / Number of point mutations, silent / Number of point mutations, total: bases sequenced: dPTP 4093, 8-oxodGTP 5463, dPTP & 8-oxodGTP 3751; for additional (unexpected) mutations found: dPTP: out of 4093 bp, 8-oxodGTP: out of 5463 bp; for linear relation of mutation frequency with number of PCR cycles, up to: equimolar
# Procedure: The four normal dNTPs and the analogues were used in equimolar amounts (500 μM);
# Data obtained after different number of PCR cycles have been pooled and figures express percentage of total number of mutations;
# Numbers at the top of the Table indicate how many times a particular codon is present in the target sequence. Open squares indicate single point mutations within a particular codon. Filled circles indicate two point mutations within a particular codon. […] Squares in shaded areas indicate silent mutations;
# Filled in symbols indicate a single nucleotide change within a codon, open symbols denote two nucleotide changes within the same codon. […] Amino acids are grouped in five classes according to their physico-chemical characteristics: glycine, non-polar, polar, positively charged, and negatively charged.
# The first number at the 5'-end of each sequence indicates how many PCR cycles were allowed in the presence of the analogue(s). The second number identifies different clones.
# In order to investigate the mutations resulting when dPTP or 8oxodGTP was used in DNA synthesis reactions, PCR reactions were set up in which dPTP was added in equimolar concentrations to the four normal dNTPs. The DNA was amplified for a variable number of cycles and, in order to eliminate the incorporated base analogues, an aliquot of the amplified DNA was used as template in a second PCR amplification in which only the four normal dNTPs were used. The PCR product was subsequently cloned, and some of the clones sequenced (in this way, the pattern of mutation was not influenced by the DNA repair mechanisms of the E. coli host).
# DNA amplification reactions were carried out for variable number of cycles, as indicated in FIGS. 11A-11C by the number preceding the point in the clone designation.
# For mutagenesis experiments, 10 fmoles of template DNA were amplified using 0.5 μl of AmpliTaq polymerase (5 U/μl, Applied Biosystems) in a 20 μl reaction containing the appropriate sense and antisense […] at 0.5 μM, 2 mM MgCl2, 10 mM Tris-HCl pH8.3, 50 mM KCl, 1 g/l gelatine and dATP, dCTP, dGTP, TTP, dPTP and/or 8-oxodGTP, each at 500 μM. After various cycles (92° C. for 1 min, 55° C. for 1.5 min, 75° C. for 5 min), 1 μl of the amplified material was used in a second PCR in which the same conditions as above were used except that no dPTP or 8-oxodGTP were added to the reaction mixture. The product of the second PCR was digested with BstEII and PstI and cloned into M13VHPCRl vector (Jones et al., 1986 Nature 321, 522-525).
# [4] = tested on: E.coli DNA polymerase I Klenow fragment; details: 37° C., Purmal et al., 1994, cited from earlier work
# Taq Polymerase [5] = biological target: T1, Taq Polymerase; details: cited from earlier work
# TEM-1 β-lactamase = biological target: T2, TEM-1 β-lactamase (Escherichia coli, UniProt P62593); experiment: Cefotaxime resistance / hydrolytic activity of TEM-1 β-lactamase and mutants in E. coli; format: cell-based; details: wild type TEM-1
# T2 construct: mutants cloned in pBC KS+
# Procedure: In this experiment we set to improve the hydrolytic activity of the enzyme TEM-1 β-lactamase on the poorly hydrolysed substrate cefotaxime [minimum inhibitory concentration (MIC)=0.02 μg/ml] by repeated rounds of random mutagenesis and selection on increasing concentrations of the antibiotic. The best mutants selected in the first round are subjected to a second round of mutagenesis and selection in the presence of higher concentration of antibiotic. A stepwise improvement of the efficiency of TEM-1 hydrolytic activity is attained by progressively increasing the selective pressure.
# The wild type TEM-1 gene from the plasmid pBR322 was used as a template for PCT amplification in the presence of dPTP and 8-oxodGTP in addition to the four normal dNTPs. The pool of mutants generated was cloned in the vector pBC KS^+ and the library of mutants transformed in E. coli by electroporation. […] Selected mutant were analysed by sequencing and the results of the first round of mutagenesis and selection are shown in Table 3A. A different number of cycles of the mutagenic PCT was used to generate four independent libraries of mutants (libA, libB, libC and libD) each characterised by a different frequency of mutation (0.3% for libA, 0.3% for libB, 1.8% for libC and 6.3% for libD), as determined by sequence analysis of unselected clones. […]
# [6] = Singer et al. 1989; cited from earlier work
# T1 sequence (P19821 whole entry): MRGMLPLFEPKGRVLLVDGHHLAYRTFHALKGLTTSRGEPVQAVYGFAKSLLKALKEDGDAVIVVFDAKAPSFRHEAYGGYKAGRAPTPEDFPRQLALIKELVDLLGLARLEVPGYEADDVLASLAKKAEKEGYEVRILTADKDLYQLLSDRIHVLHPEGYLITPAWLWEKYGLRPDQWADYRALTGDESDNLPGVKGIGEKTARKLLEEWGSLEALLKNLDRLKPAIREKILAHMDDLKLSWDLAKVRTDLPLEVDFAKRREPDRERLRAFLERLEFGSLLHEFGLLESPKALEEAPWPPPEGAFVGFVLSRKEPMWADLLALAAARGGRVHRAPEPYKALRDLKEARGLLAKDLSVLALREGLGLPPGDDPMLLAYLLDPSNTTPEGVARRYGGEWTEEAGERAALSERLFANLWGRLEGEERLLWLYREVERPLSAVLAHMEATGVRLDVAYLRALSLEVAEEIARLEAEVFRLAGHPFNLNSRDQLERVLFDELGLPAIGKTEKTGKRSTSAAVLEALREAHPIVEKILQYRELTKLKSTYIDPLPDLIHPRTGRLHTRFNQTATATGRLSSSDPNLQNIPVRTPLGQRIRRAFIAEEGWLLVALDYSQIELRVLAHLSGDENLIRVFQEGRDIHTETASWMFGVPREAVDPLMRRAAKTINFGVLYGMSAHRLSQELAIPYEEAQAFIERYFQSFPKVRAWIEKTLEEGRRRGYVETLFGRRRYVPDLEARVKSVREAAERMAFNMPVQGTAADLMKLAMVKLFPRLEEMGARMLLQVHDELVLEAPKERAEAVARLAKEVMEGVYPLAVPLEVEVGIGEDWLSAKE
# T2 sequence (P62593 24-286 limits assumed): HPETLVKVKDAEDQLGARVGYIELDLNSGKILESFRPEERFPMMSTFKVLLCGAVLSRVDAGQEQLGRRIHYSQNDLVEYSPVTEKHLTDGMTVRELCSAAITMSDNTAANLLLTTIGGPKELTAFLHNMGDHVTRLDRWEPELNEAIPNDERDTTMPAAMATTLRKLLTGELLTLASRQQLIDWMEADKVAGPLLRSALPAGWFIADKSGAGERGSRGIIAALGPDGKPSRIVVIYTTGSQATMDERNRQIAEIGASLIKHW
structure (smiles),measurement,setting,value
Cc1cn([C@H]2C[C@H](O)[C@@H](COP(=O)(O)OP(=O)(O)OP(=O)(O)O)O2)c(=O)[nH]c1=O [TTP],Relative Efficiency,Taq Polymerase [1]; template A,1.00
same,Vmax /Km,Taq Polymerase [1]; template A,167000 M⁻¹
same,Vmax^(rel),Taq Polymerase [1]; template A,1.02 ± 0.11
"Nc1nc2c(nc(O)n2[C@H]2C[C@H](O)[C@@H](COP(=O)(O)OP(=O)(O)OP(=O)(O)O)O2)c(=O)[nH]1 [8-oxodGTP, 2'-Deoxy-8-hydroxyguanosine 5'-triphosphate]",A→C transversions rate,[2],approximately 1%
same,incorporation into DNA and its extension,"Taq Polymerase [3]; normal or limiting dGTP, higher 8-oxodGTP",some incorporation into DNA and its extension could be demonstrated
same,types of mutation produced,target DNA sequence MH22,two transversions (A→C and T→G)
same,A→C transversions of total mutations,"target DNA sequence MH22; 500 μM, pooled cycles",38.8%
same,T→G transversions of total mutations,"target DNA sequence MH22; 500 μM, pooled cycles",59%
same,codons replaced,"target DNA sequence MH22; 8 mutant clones, equimolar with dNTPs",18 codons
same,"Number of point mutations, coding",target DNA sequence MH22,65
same,"Number of point mutations, silent",target DNA sequence MH22,16
same,"Number of point mutations, total",target DNA sequence MH22,91
same,additional (unexpected) mutations found,target DNA sequence MH22,One C→A transversion; also recorded: two A→G transitions and one G→A transition
same,"linear relation of mutation frequency with number of PCR cycles, up to",target DNA sequence MH22; 500 μM,≥ 30 cycles
same,Km,[4]; read-out: Km for insertion opposite A,58 µM
same,Km,[4]; read-out: Km for insertion opposite C,63 µM
CON=c1[nH]c(N)nc2c1ncn2[C@H]1C[C@H](O)[C@@H](CO)O1 [K],recognition of template DNA containing the analogue by polymerases,Taq Polymerase [5],recognised by polymerases such as Taq polymerase in PCR and Sequenase™ in DNA sequencing
"CON=c1[nH]c(N)nc2c1ncn2[C@H]1C[C@H](O)[C@@H](COP(=O)(O)OP(=O)(O)OP(=O)(O)O)O1 [dKTP, 2-Amino-9-(2-deoxy-β-D-erythropentofuranosyl)-6-methoxyaminopurine 5'-triphosphate]",replacement of dATP and dGTP in PCR,"Taq Polymerase [3]; 350 base pair DNA, 30 cycles","could replace dATP and dGTP, but only to a limited extent"
Nc1ccn([C@H]2C[C@H](O)[C@@H](COP(=O)(O)OP(=O)(O)OP(=O)(O)O)O2)c(=O)n1 [dCTP],Relative Efficiency,Taq Polymerase [1]; template G,1.00
same,Vmax^(rel),Taq Polymerase [1]; template G,1.01 ± 0.09
CO/N=C(\C(=O)N[C@@H]1C(=O)N2C(C(=O)O)=C(COC(C)=O)CS[C@H]12)c1csc(N)n1 [cefotaxime],minimum inhibitory concentration (MIC),TEM-1 β-lactamase,0.02 µg/mL
CCOc1nc(=O)c(C)cn1[C@H]1C[C@H](O)[C@@H](COP(=O)(O)OP(=O)(O)OP(=O)(O)O)O1 [O^2 -ethylthymidine triphosphate],A→T transversions induced,[6],"induces A→T transversions, albeit at a low frequency"
"O=C1NC2=NOCCC2=CN1[C@H]1C[C@H](O)[C@@H](COP(=O)(O)OP(=O)(O)OP(=O)(O)O)O1 [dPTP, 6-(2-deoxy-β-D-erythropentofuranosyl)-3,4-dihydro-8H-pyrimido-[4,5-c][1,2]oxazine-7-one 5'-triphosphate]",incorporation efficiency opposite template adenine versus guanine,Taq Polymerase [1],approximately three times more efficiently opposite template adenine than guanine residues
same,recognition by Taq polymerase compared with TTP,Taq Polymerase [1],virtually indistinguishable from TTP in terms of its recognition by Taq polymerase
same,Relative Efficiency,Taq Polymerase [1]; template A,0.99
same,Vmax /Km,Taq Polymerase [1]; template A,165000 M⁻¹
same,Vmax^(rel),Taq Polymerase [1]; template A,0.86 ± 0.06
same,Relative Efficiency,Taq Polymerase [1]; template G,0.11
same,Vmax /Km,Taq Polymerase [1]; template G,57000 M⁻¹
same,Vmax^(rel),Taq Polymerase [1]; template G,0.69 ± 0.08
same,replacement of TTP in PCR,"Taq Polymerase [3]; 350 base pair DNA, 30 cycles",could completely replace TTP and yield amounts of product comparable to those obtained using the four normal triphosphates
same,replacement of dCTP in PCR,"Taq Polymerase [3]; 350 base pair DNA, 30 cycles",could replace dCTP to some extent
same,mutagenic efficiency compared,target DNA sequence MH22,much more efficient mutagen than 8-oxodGTP
same,types of mutation produced,target DNA sequence MH22,"four transitions (A→G, T→C, G→A and C→T)"
same,A→G mutations of total mutations,"target DNA sequence MH22; 500 μM, pooled cycles",46.6%
same,C→T mutations of total mutations,"target DNA sequence MH22; 500 μM, pooled cycles",8%
same,G→A mutations of total mutations,"target DNA sequence MH22; 500 μM, pooled cycles",9.2%
same,T→C mutations of total mutations,"target DNA sequence MH22; 500 μM, pooled cycles",35.5%
same,"codons mutated to alternative ones, out of 43 codons present","target DNA sequence MH22; 12 mutant clones, equimolar with dNTPs",40 codons
same,"Number of point mutations, coding",target DNA sequence MH22,318
same,"Number of point mutations, silent",target DNA sequence MH22,66
same,"Number of point mutations, total",target DNA sequence MH22,384
same,additional (unexpected) mutations found,target DNA sequence MH22,one T→G and two A→T transversions
same,"linear relation of mutation frequency with number of PCR cycles, up to",target DNA sequence MH22; 500 μM,20 cycles
O=C1NC2=NOCCC2=CN1[C@H]1C[C@H](O)[C@@H](CO)O1 [P],recognition of template DNA containing the analogue by polymerases,Taq Polymerase [5],recognised by polymerases such as Taq polymerase in PCR and Sequenase™ in DNA sequencing
"O=P(O)(O)OP(=O)(O)OP(=O)(O)OC[C@H]1O[C@@H](n2cnc3c(O)ncnc32)C[C@@H]1O [dITP, deoxyinosine triphosphate]",substrate quality for Taq polymerase,Taq Polymerase [5]; prior art,poor substrate for Taq Polymerase and cannot support DNA synthesis when replacing any of the four normal dNTPs
